Laboratory results published in patent US9163256B2, “Mutant receptors and their use in a nuclear receptor-based inducible gene expression system” (priority 2004, dated 2015).
Like-named read-outs stand apart in the source and are kept apart here.

Columns and labels:
[1] = target: CfEcR-DEF mutant A110E (Choristoneura fumiferana, UniProt O77255, A393E); assay: cell-based
Procedure: (§1) This construct was prepared in the same way as in switch 1.1 above except wild-type CfEcR-DEF was replaced with mutant CfEcR-DEF comprising a ligand binding domain comprising a substitution mutation selected from Table 1 below.
(§2) DNAs were transfected into mouse NIH3T3 cells (ATCC) as follows. Standard methods for culture and maintenance of the cells were followed. Cells were harvested and plated 96-well plates at 2,500 cells per well, in 50 μL of growth medium containing 10% fetal bovine serum (FBS). Twenty-four hours later, the cells were treated with 35 μL of serum-free growth medium containing either dimethylsulfoxide (DMSO; control) or a DMSO solution of ligand. The cells were then transfected using Superfect (Qiagen Inc.) transfection reagent. For each well, 0.625 μL of Superfect was mixed with 14.2 μL of serum-free growth medium. 0.16 μg of reporter construct and 0.04 μg of each receptor construct were added to the transfection reagent mix. The contents of the transfection mix were mixed in a vortex mixer and let stand at room temperature for 30 minutes. At the end of incubation, 15 μL of transfection mix was added to the cells. The cells were maintained at 37° C. and 5% CO2 for 48 hours in 5% FBS.
(§3) Reporter Assays: Cells were harvested 40 hours after adding ligands. 125 μL of passive lysis buffer (part of Dual-Luciferase reporter assay system from Promega Corporation) were added to each well of the […] plate. The plates were placed on a rotary shaker for 15 minutes. Twenty μL of lysate were assayed. Luciferase activity was measured using Dual-Luciferase reporter assay system from Promega Corporation following the manufacturer's instructions. Fold induction (FI) activities were calculated by dividing relative light units (“RLU”) in ligand treated cells with RLU in DMSO treated cells (untreated control).

[2] = target: CfEcR-DEF mutant F109N (Choristoneura fumiferana, UniProt O77255, F392N); assay: cell-based
Procedure: as §1, §2, §3

[3] = target: CfEcR-DEF mutant F109W (Choristoneura fumiferana, UniProt O77255, F392W); assay: cell-based
Procedure: as §1, §2, §3

[4] = target: CfEcR-DEF mutant F48L (Choristoneura fumiferana, UniProt O77255, F331L); assay: cell-based
Procedure: as §1, §2, §3

[5] = target: CfEcR-DEF mutant I51L (Choristoneura fumiferana, UniProt O77255, I334L); assay: cell-based
Procedure: as §1, §2, §3

[6] = target: CfEcR-DEF mutant L132V (Choristoneura fumiferana, UniProt O77255, L415V); assay: cell-based
Procedure: as §1, §2, §3

[7] = target: CfEcR-DEF mutant L234M (Choristoneura fumiferana, UniProt O77255, L517M); assay: cell-based
Procedure: as §1, §2, §3

[8] = target: CfEcR-DEF mutant M125E (Choristoneura fumiferana, UniProt O77255, M408E); assay: cell-based
Procedure: as §1, §2, §3

[9] = target: CfEcR-DEF mutant M125P (Choristoneura fumiferana, UniProt O77255, M408P); assay: cell-based
Procedure: as §1, §2, §3

[10] = target: CfEcR-DEF mutant M125R (Choristoneura fumiferana, UniProt O77255, M408R); assay: cell-based
Procedure: as §1, §2, §3

[11] = target: CfEcR-DEF mutant N119F/V96T (Choristoneura fumiferana, UniProt O77255, N402F/V379T); assay: cell-based
Procedure: as §1, §2, §3

[12] = target: CfEcR-DEF mutant R95M (Choristoneura fumiferana, UniProt O77255, R378M); assay: cell-based
Procedure: as §1, §2, §3

[13] = target: CfEcR-DEF mutant R95W (Choristoneura fumiferana, UniProt O77255, R378W); assay: cell-based
Procedure: as §1, §2, §3

[14] = target: CfEcR-DEF mutant V107I/Y127E/A110P (Choristoneura fumiferana, UniProt O77255, A393P/V390I/Y410E); assay: cell-based
Procedure: as §1, §2, §3

[15] = target: CfEcR-DEF mutant V96L (Choristoneura fumiferana, UniProt O77255, V379L); assay: cell-based
Procedure: as §1, §2, §3

[16] = target: CfEcR-DEF mutant V96W (Choristoneura fumiferana, UniProt O77255, V379W); assay: cell-based
Procedure: as §1, §2, §3

[17] = target: CfEcR-DEF mutant W238Y (Choristoneura fumiferana, UniProt O77255, W521Y); assay: cell-based
Procedure: as §1, §2, §3

[18] = target: CfEcR-DEF mutant F48N (Choristoneura fumiferana, UniProt O77255, F331N); assay: GAL4-driven luciferase reporter assay in NIH3T3 cells; assay type: cell-based
Procedure: as §1, §2, §3

[19] = target: CfEcR-DEF mutant M125W (Choristoneura fumiferana, UniProt O77255, M408W); assay: as above; assay type: cell-based
Procedure: as §1, §2, §3

[20] = target: CfEcR-DEF mutant T52V/A110P (Choristoneura fumiferana, UniProt O77255, A393P/T335V); assay: as above; assay type: cell-based
Procedure: as §1, §2, §3

[21] = target: CfEcR-DEF mutant V107I/Y127E/T52V (Choristoneura fumiferana, UniProt O77255, T335V/V390I/Y410E); assay: as above; assay type: cell-based
Procedure: as §1, §2, §3

[22] = NIH3T3, 40 h, read-out: Rel Max FI

CfEcR-DEF mutant I51L, sequence (O77255 entry or part of it I334L): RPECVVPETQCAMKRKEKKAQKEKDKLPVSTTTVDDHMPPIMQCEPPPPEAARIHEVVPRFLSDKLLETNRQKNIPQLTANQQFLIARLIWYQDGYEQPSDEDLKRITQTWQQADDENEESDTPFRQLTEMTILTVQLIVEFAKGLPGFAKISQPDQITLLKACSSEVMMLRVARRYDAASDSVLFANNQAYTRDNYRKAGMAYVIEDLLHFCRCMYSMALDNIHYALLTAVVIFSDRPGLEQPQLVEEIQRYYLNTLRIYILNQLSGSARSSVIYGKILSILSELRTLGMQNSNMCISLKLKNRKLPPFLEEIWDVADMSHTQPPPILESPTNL
CfEcR-DEF mutant I51L, sequence (P28702 299-449, further chain): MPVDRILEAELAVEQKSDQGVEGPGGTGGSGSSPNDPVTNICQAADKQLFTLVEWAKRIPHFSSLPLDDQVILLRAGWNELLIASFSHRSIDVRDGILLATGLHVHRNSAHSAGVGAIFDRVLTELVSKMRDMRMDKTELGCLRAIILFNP
CfEcR-DEF mutant F48N, sequence (O77255 entry or part of it F331N): as the sequence (O77255 entry or part of it I334L) above, with F125N, L128I counted along it
CfEcR-DEF mutant F48N, sequence (P28702 299-449, further chain): as the sequence (P28702 299-449, further chain) above
CfEcR-DEF mutant N119F/V96T, sequence (O77255 entry or part of it V379T/N402F): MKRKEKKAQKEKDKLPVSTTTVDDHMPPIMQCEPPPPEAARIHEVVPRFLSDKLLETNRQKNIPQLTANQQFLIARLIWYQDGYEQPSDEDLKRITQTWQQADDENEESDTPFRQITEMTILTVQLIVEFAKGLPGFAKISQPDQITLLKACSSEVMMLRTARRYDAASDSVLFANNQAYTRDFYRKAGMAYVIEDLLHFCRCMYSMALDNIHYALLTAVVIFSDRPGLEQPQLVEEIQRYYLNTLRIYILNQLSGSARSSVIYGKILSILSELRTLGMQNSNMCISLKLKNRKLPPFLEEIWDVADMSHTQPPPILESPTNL
CfEcR-DEF mutant N119F/V96T, sequence (P28702 299-449, further chain): as the sequence (P28702 299-449, further chain) above
CfEcR-DEF mutant V96L, sequence (O77255 entry or part of it V379L): as the sequence (O77255 entry or part of it V379T/N402F) above, with T161L, F184N counted along it
CfEcR-DEF mutant V96L, sequence (P28702 299-449, further chain): as the sequence (P28702 299-449, further chain) above
CfEcR-DEF mutant M125W, sequence (O77255 entry or part of it M408W): as the sequence (O77255 entry or part of it I334L) above, with L128I, M202W counted along it
CfEcR-DEF mutant M125W, sequence (P28702 299-449, further chain): as the sequence (P28702 299-449, further chain) above
CfEcR-DEF mutant T52V/A110P, sequence (O77255 entry or part of it T335V/A393P): as the sequence (O77255 entry or part of it V379T/N402F) above, with T117V, T161V, A175P, F184N counted along it
CfEcR-DEF mutant T52V/A110P, sequence (P28702 299-449, stated change not applied, further chain): as the sequence (P28702 299-449, further chain) above
CfEcR-DEF mutant L132V, sequence (O77255 entry or part of it L415V): as the sequence (O77255 entry or part of it I334L) above, with L128I, L209V counted along it
CfEcR-DEF mutant L132V, sequence (P28702 298-449, further chain): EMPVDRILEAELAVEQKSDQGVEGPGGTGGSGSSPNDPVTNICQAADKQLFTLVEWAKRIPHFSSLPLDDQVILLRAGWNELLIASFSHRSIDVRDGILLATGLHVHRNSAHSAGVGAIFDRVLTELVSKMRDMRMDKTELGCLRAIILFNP
CfEcR-DEF mutant L234M, sequence (P28702 299-449): as the sequence (P28702 299-449, further chain) above
CfEcR-DEF mutant L234M, sequence (O77255 entry or part of it L517M): as the sequence (O77255 entry or part of it I334L) above, with L128I, L311M counted along it
CfEcR-DEF mutant V107I/Y127E/A110P, sequence (P28702 299-449, stated change not applied): as the sequence (P28702 299-449, further chain) above
CfEcR-DEF mutant V107I/Y127E/A110P, sequence (O77255 entry or part of it V390I/A393P/Y410E): as the sequence (O77255 entry or part of it V379T/N402F) above, with T161V, V172I, A175P, F184N, Y192E counted along it

Structure (SMILES): CC(C)CC[C@@H](O)[C@](C)(O)[C@H]1CC[C@@]2(O)C3=CC(=O)[C@@H]4C[C@@H](O)[C@@H](O)C[C@]4(C)[C@H]3CC[C@]12C [PonA, ponasterone A]
- EC50 ([1]; mutant A110E, read-out: EC50): ~10 µM
- Rel Max FI ([1]; mutant A110E, relative to max fold induction of GS-E ligand): 1.09
- Rel Max FI ([2]; mutant F109N): 0
- EC50 ([2]; mutant F109N, read-out: EC50): > 33 µM
- EC50 ([3]; mutant F109W, read-out: EC50): 4.06 µM
- Rel Max FI ([3]; mutant F109W, relative to max fold induction of GS-E ligand): 0.08
- EC50 ([4]; mutant F48L, read-out: EC50): ~10 µM
- Rel Max FI ([4]; mutant F48L, relative to max fold induction of GS-E ligand): 0.59
- Rel Max FI ([5]; mutant I51L): 0.66
- EC50 ([5]; mutant I51L, read-out: EC50): ~8 µM
- EC50 ([6]; mutant L132V, read-out: EC50): 6.56 µM
- Rel Max FI ([6]; mutant L132V, relative to max fold induction of GS-E ligand): 0.57
- Rel Max FI ([7]; mutant L234M): 0.02
- EC50 ([7]; mutant L234M, read-out: EC50): > 33 µM
- Rel Max FI ([8]; mutant M125E): 0
- EC50 ([8]; mutant M125E, read-out: EC50): > 33 µM
- Rel Max FI ([9]; mutant M125P): 0.7
- EC50 ([9]; mutant M125P, read-out: EC50): > 33 µM
- Rel Max FI ([10]; mutant M125R): 0
- EC50 ([10]; mutant M125R, read-out: EC50): ~8 µM
- EC50 ([11]; mutant N119F/V96T, read-out: EC50): ~0.3 µM
- Rel Max FI ([11]; mutant N119F/V96T, relative to max fold induction of GS-E ligand): 2.02
- Rel Max FI ([12]; mutant R95M): 0
- EC50 ([12]; mutant R95M, read-out: EC50): > 33 µM
- Rel Max FI ([13]; mutant R95W): 0
- EC50 ([13]; mutant R95W, read-out: EC50): > 33 µM
- EC50 ([14]; mutant V107I/Y127E/A110P, read-out: EC50): > 33 µM
- Rel Max FI ([14]; mutant V107I/Y127E/A110P, relative to max fold induction of GS-E ligand): 0.01
- Rel Max FI ([15]; mutant V96L): 0.49
- EC50 ([15]; mutant V96L, read-out: EC50): 7.49 µM
- Rel Max FI ([16]; mutant V96W): 0.83
- EC50 ([16]; mutant V96W, read-out: EC50): ~3.3 µM
- Rel Max FI ([17]; mutant W238Y): 0.07
- EC50 ([17]; mutant W238Y, read-out: EC50): > 33 µM
- Rel Max FI ([18]; mutant F48N): 0.17
- EC50 ([18]; mutant F48N, read-out: EC50): ~20 µM
- Rel Max FI ([19]; mutant M125W): 0
- EC50 ([19]; mutant M125W, read-out: EC50): > 33 µM
- EC50 ([20]; mutant T52V/A110P, read-out: EC50): > 33 µM
- Rel Max FI ([20]; mutant T52V/A110P, relative to max fold induction of GS-E ligand): 0
- EC50 ([21]; mutant V107I/Y127E/T52V, read-out: EC50): ~1 µM
- Rel Max FI ([21]; mutant V107I/Y127E/T52V, relative to max fold induction of GS-E ligand): 0.67

Structure (SMILES): Cc1cc(C)cc(C(=O)N(NC(=O)c2cccc(C(C)C)c2C)C(C)(C)C)c1 [RG-102362, 3,5-Dimethyl-benzoic acid N-tert-butyl-N′-(3-isopropyl-2-methyl-benzoyl)-hydrazide]
- EC50 [1]: 1.02 µM
- Emax [1, 22]: 78%
- EC50 [2]: 1.85 µM
- Emax [2, 22]: 40%
- EC50 [3]: 1.41 µM
- Emax [3, 22]: 70%
- EC50 [4]: 0.56 µM
- Emax [4, 22]: 53%
- EC50 [5]: 3.35 µM
- Emax [5, 22]: 53%
- EC50 [6]: 0.29 µM
- Emax [6, 22]: 74%
- EC50 [7]: 2.04 µM
- Emax [7, 22]: 43%
- EC50 [8]: 0.83 µM
- Emax [8, 22]: 40%
- EC50 [9]: > 33 µM
- Emax [9, 22]: 78%
- EC50 [10]: 10.4 µM
- Emax [10, 22]: 0%
- EC50 [11]: ~10 µM
- Emax [11, 22]: 19%
- EC50 [12]: 4.28 µM
- Emax [12, 22]: 27%
- EC50 [13]: ~8 µM
- Emax [13, 22]: 25%
- EC50 [14]: 0.1 µM
- Emax [14, 22]: 63%
- EC50 [15]: 2.67 µM
- Emax [15, 22]: 58%
- EC50 [16]: 3.26 µM
- Emax [16, 22]: 38%
- EC50 [17]: > 33 µM
- Emax [17, 22]: 6%
- EC50 [18]: 1.68 µM
- Emax [18, 22]: 66%
- EC50 [19]: 3.5 µM
- Emax [19, 22]: 44%
- EC50 [20]: 0.32 µM
- Emax [20, 22]: 94%
- EC50 [21]: < 0.01 µM
- Emax [21, 22]: 73%
